Usually melting point stands for the temperature, or range, at which the solid turns liquid.

Results on 34 compounds are retold here after a melting point compilation (Tetko et al.; mined from patent text by program, amines drawn as free bases though some values may be those of a salt).

In turn, `CCCCOc1cc(C(=O)O)cc(N)c1C(=O)c1ccc(Cl)cc1` showed a melting point of 286 to 288 °C.

Regarding `CCCC[C@]1(CC)CS(=O)(=O)c2cc(OC)c(Br)cc2[C@@H](c2ccccc2)N1`, the melting point lay in the range of 132 to 134 °C. Next, `COC(=O)c1ccccc1COc1cccc2oc(C)cc12`: 93 to 95 °C. Consider `O=C(Cc1cccnn1)c1ccc(F)cc1F`, for which the melting point lay in the range of 116 to 118 °C. As to `CCC(CNC(=S)Nc1cccc(-c2c[nH]cn2)c1)N(Cc1ccc(Cl)c(Cl)c1)c1ccc(Br)cn1` (centres undefined), the melting point lay within 140 to 160 °C. `C1=C(c2c[nH]c3ccccc23)CCN(CC2CCc3ccccc3O2)C1` (centres undefined) registered a melting point of 171 to 173 °C. Next, `Cc1c(NN)nc(N)nc1-c1ccco1`: 155 to 160 °C; `O=C(CCl)CCCc1ccc(CCCC(=O)CCl)cc1`: 70 to 71 °C; `CN1C(=O)[C@H](NC(=O)Nc2cccc(CC(=O)O)c2)N=C(c2ccccc2)c2ccccc21`: 167 to 170 °C. Next, `Fc1cc(-c2cc(C(F)(F)F)n3cnc(-c4ccncc4)c3n2)ccc1C(F)(F)F`: 267 °C; `CC1(C2CCC3C4C=CC5=CC(=O)C6OC6C5(C)C4CCC32C)OCCO1` (centres undefined): 137 to 138 °C.

The compound `Cc1cc(C(=O)O)c(N)cc1Cl` had a melting point of 212 to 215 °C. `N#Cc1nn(-c2ccc(S(N)(=O)=O)cc2)c2c1CSc1ccccc1-2` returned a melting point of 211 to 213 °C. Next, `O=C(O)CCCCCCCCCCCCCCCCCCCCCN1C(=O)C=CC1=O`: 106 °C; `CN1CCC(c2c[nH]c3ccc(NC(=O)c4ccccc4)nc23)CC1`: 111 to 114 °C; `O=C(NNC(=O)c1ccc([N+](=O)[O-])cc1)c1ccc([N+](=O)[O-])cc1`: 294 °C. `CCNc1ncn(Cc2ccc(OC)c(OC3CCCC3)c2)c2nc(C(C)C)nc1-2` returned a melting point of 205 to 207 °C. Next, `CCOC(=O)c1ccc(-c2ncc(C#Cc3ccccc3)s2)s1`: 137 to 141 °C; `CC1(CCCN2CC[C@H](CNC(=O)c3cc(Cl)c(N)c4c3OCC4)[C@H](O)C2)OCCO1` (relative stereo): 118 °C; `COC(=O)/C=C/c1ccc(CC(C)NCC(O)c2cccc(F)c2)cc1` (centres undefined): 75 to 110 °C. `COc1cc(-c2cc(C(F)(F)F)nn2-c2ccc(S(C)(=O)=O)c(F)c2)ccc1-c1cscn1` showed a melting point of 155 to 157 °C. Next, `CCOc1ccc(-n2c(NCc3ccc(Cl)cc3)nc3ccc(Cl)cc32)cc1`: 135 to 136 °C; `O=C(Nc1ccccc1)O[C@@H]1CN=C(c2ccc([N+](=O)[O-])cc2)O[C@H]1c1ccccc1` (racemic): 148 °C; `O=C1c2c(-c3ccccc3)cc(CO)nc2OCCN1Cc1cc(C(F)(F)F)cc(C(F)(F)F)c1`: 199 to 201 °C. Then `COc1cccc(Cn2c(=O)c3c(Cl)cc(Cl)cc3n(Cc3ccccc3)c2=O)c1`, with 106 to 108 °C; and `C(=Nc1c2c(nc3ccccc13)CCCC2)c1ccccc1`, with 168 to 169 °C; and `O=C1c2ccccc2C(=O)N1CCc1cccc(F)c1`, with 122 to 125 °C. Next, `O=c1[nH]c2ccc(C3=NOC(CCN4CCC(Cc5ccc(F)cc5)CC4)C3)cc2o1` (centres undefined): 254 to 258 °C.

Regarding `CCS(=O)(=O)N(c1ccc(F)cc1Br)S(=O)(=O)CC`, the melting point lay within 114 to 116 °C. `COc1ccc(C(C)(O)c2sc(C)nc2C)cc1` (centres undefined) had a melting point of 114 to 116 °C. Turning to `Cc1c(-c2ncc([N+](=O)[O-])n2C)cnn1-c1ccc(Cl)cc1`, the melting point was determined as 164 °C.

Turning to `O=C(O)COc1nn(Cc2ccccc2)cc1-c1ccccc1`, the melting point was 132 to 133 °C. Then `CCOc1cc(CC)ccc1C1CCN(CCCCNC(=O)c2sc(-c3ccc(C(F)(F)F)cc3)nc2CO)CC1`, with 150 °C. Next, `CC(C)c1cc2n(Cc3ccccc3)cc(C(=O)O)c(=O)n2n1`: 180 to 185 °C.
